In publication PMC9558423 (Molecular nutrition & food research, 2020):
Where two headings read alike, the source gives them in different places.

Tests used:
[1] = for Qualitative Tmax (urine collection with greatest excretion): 12h urine collections, np = no peak; for Cmax (nmol excreted) / Tmax: urine; for Cmax (nmol excreted): mean ± SD; for Tmax: female, Sprague Dawley, rat, po
[2] = High dose (1000 mg/kg bw); plasma 0–48h; trapezoidal; mean ± SD

Compound	Qualitative Tmax (urine collection with greatest excretion) ([1]; High dose (1000 mg/kg bw))	Cmax (nmol excreted) ([1]; High dose (1000 mg/kg bw))	Qualitative Tmax (urine collection with greatest excretion) ([1]; Low dose (75 mg/kg bw))	Cmax (nmol excreted) ([1]; Low dose (75 mg/kg bw))	Qualitative Tmax (urine collection with greatest excretion) ([1]; Medium dose (350 mg/kg bw))	Cmax (nmol excreted) ([1]; Medium dose (350 mg/kg bw))	Plasma AUC [2]	Tmax ([1]; 350 mg/kg) [h]	Tmax ([1]; 1000 mg/kg) [h]	Tmax ([1]; 75 mg/kg) [h]	Time of maximal urinary excretion after dosing ([1]; as stated in text/figure legend, doses not separated) [h]
COc1cc(-c2[o+]c3cc(O)cc(O)c3cc2O[C@@H]2O[C@H](CO)[C@@H](O)[C@H](O)[C@H]2O)cc(OC)c1O [Malvidin Glucoside, malvidin-3-O-glucoside]	0 to 12 h	10.7 ± 0.9 nmol excreted	np	np	0 to 12 h	6.57 ± 0.57 nmol excreted					
Caffeic acid sulfate	0 to 12 h	9.74 ± 0.78 nmol excreted	np	np	0 to 12 h	6.43 ± 4.57 nmol excreted					
COc1cc(/C=C/C(=O)O)ccc1O [Ferulic acid, ferulic acid]	0 to 24 h		np	np	0 to 24 h	11.7 ± 3.0 nmol excreted	trace				
COc1ccc(CCC(=O)O)cc1O [3-OH-4-OMe-PPA, 3-hydroxy-4-methoxyphenylpropionic acid]	12 to 24 h	2.48 ± 2.69 nmol excreted	0 to 12 h	0.82 ± 0.58 nmol excreted	12 to 24 h	2.69 ± 1.83 nmol excreted					
COc1cc(-c2[o+]c3cc(O)cc(O)c3cc2O[C@@H]2O[C@H](CO)[C@@H](O)[C@H](O)[C@H]2O)cc(O)c1O [Petunidin Glucoside, petunidin-3-O-glucoside]	0 to 12 h	0.94 ± 0.19 nmol excreted	np	np	0 to 12 h	0.37 ± 0.14 nmol excreted					
O=C(O)CNC(=O)c1cccc(O)c1 [3-OH-hippuric acid, 3-hydroxyhippuric acid]		26.3 ± 7.6 nmol excreted	np	np		31.8 ± 8.1 nmol excreted		12 to 24	12 to 24		
O=C(O[C@@H]1O[C@H](C(=O)O)[C@@H](O)[C@H](O)[C@H]1O)c1ccccc1 [BzA glucuronide]	12 to 24 h	0.76 ± 0.17 nmol excreted	np	np	12 to 24 h	0.85 ± 0.17 nmol excreted					
COc1cc(-c2[o+]c3cc(O)cc(O)c3cc2OC2OC(CO)C(O)C(O)C2O)cc(O)c1O (stereo not shown) [Petunidin Galactoside, petunidin-3-O-galactoside]	0 to 12 h	1.73 ± 0.38 nmol excreted	np	np	0 to 12 h	0.49 ± 0.23 nmol excreted					
O=C(O)Cc1ccc(O)cc1 [4-OH-PAA, 4-hydroxyphenylacetic acid]		0.51 ± 0.16 nmol excreted		0.30 ± 0.12 nmol excreted		0.84 ± 0.38 nmol excreted		0 to 24	0 to 24	0 to 24	
OC[C@H]1O[C@@H](Oc2cc3c(O)cc(O)cc3[o+]c2-c2cc(O)c(O)c(O)c2)[C@H](O)[C@@H](O)[C@H]1O [Delphinidin Galactoside]	0 to 12 h	1.74 ± 0.22 nmol excreted	np	np	0 to 12 h	0.98 ± 0.20 nmol excreted					
COc1cc(-c2[o+]c3cc(O)cc(O)c3cc2O[C@@H]2O[C@H](CO)[C@H](O)[C@H](O)[C@H]2O)cc(OC)c1O [Malvidin Galactoside, malvidin-3-O-galactoside]	0 to 12 h	14.2 ± 1.3 nmol excreted	np	np	0 to 12 h	7.36 ± 2.00 nmol excreted					≤ 12
delphinidin sulfate	0 to 24 h	20.2 ± 2.4 nmol excreted	np	np	0 to 24 h	18.2 ± 2.4 nmol excreted					
OC[C@H]1O[C@@H](Oc2cc3c(O)cc(O)cc3[o+]c2-c2cc(O)c(O)c(O)c2)[C@H](O)[C@@H](O)[C@@H]1O [Delphinidin Glucoside, delphindin-3-O-glucoside]	0 to 24 h	0.94 ± 0.22 nmol excreted	np	np	0 to 24 h	0.81 ± 0.14 nmol excreted					
COc1ccc(CC(=O)O)cc1O [3-OH-4-OMe-PAA]	np	np	np	np	np	np					
O=c1c(O)c(-c2ccc(O)c(O)c2)oc2cc(O)cc(O)c12 [Quercetin, quercetin]		11.5 ± 4.0 nmol excreted		3.88 ± 1.46 nmol excreted		10.1 ± 7.4 nmol excreted		0 to 12	0 to 12	0 to 12	
OC[C@H]1O[C@@H](Oc2cc3c(O)cc(O)cc3[o+]c2-c2ccc(O)c(O)c2)[C@H](O)[C@@H](O)[C@H]1O [Cyanidin Galactoside]	0 to 12 h	0.46 ± 0.09 nmol excreted	np	np	0 to 12 h	0.19 ± 0.04 nmol excreted					
OC[C@H]1O[C@@H](Oc2cc3c(O)cc(O)cc3[o+]c2-c2ccc(O)c(O)c2)[C@H](O)[C@@H](O)[C@@H]1O [Cyanidin Glucoside, cyanidin-3-O-glucoside]	0 to 12 h	0.22 ± 0.04 nmol excreted	np	np	0 to 24 h	0.11 ± 0.05 nmol excreted					
O=C(/C=C/c1ccc(O)c(O)c1)O[C@@H]1C[C@](O)(C(=O)O)C[C@@H](O)[C@H]1O [Chlorogenic acid, chlorogenic acid]		238 ± 67 nmol excreted	np	np		66.1 ± 23.4 nmol excreted		0 to 24	0 to 12		
petunidin glucuronide	0 to 12 h	3.49 ± 0.46 nmol excreted	np	np	0 to 12 h	0.92 ± 0.24 nmol excreted					
O=C(O)/C=C/c1ccc(O)c(O)c1 [Caffeic acid, caffeic acid]		3.97 ± 1.38 nmol excreted	np	np		3.18 ± 1.64 nmol excreted		0 to 12	0 to 12		
